According to US4171367A, “Pyrazolyl amino imidazolines” (Abbott Laboratories, priority 1977, dated 1979):
Where a name gives a salt, the structure may show the parent alone. Read-outs that look alike come from different tables or passages of the source.

Test system: reverse passive Arthus reaction
Experiment: reverse passive Arthus reaction test in rats (anti-inflammatory effect, oral)
Format: in vivo, rat (male Sprague-Dawley)
Settings: 4 h, read-out: Percent Inhibition of Arthus Reaction; for inhibition in vivo at 25 mg/kg: oral dose 25 mg/kg
Text: The anti-inflammatory activity of the compounds of this invention was established using the reverse passive Arthus reaction in the rat as described by G. W. Carter and R. A. Krause in Federation Proceedings, Vol. 35, p. 774, 1976. The carrageenin rat paw edema test (Winter et al, Proc. Soc. Exp. Biol. Med., 111, 554, 1962) can be used to establish anti-inflammatory activity, however, unlike carrageenin induced edema, the Arthus reaction is a well characterized immune reaction which bears close resemblance to the pathogenisis of rheumatoid arthritis.
The Arthus reaction represents one of the oldest and best studied models of immunological injury. It is produced by the injection of antigen locally into a hyperimmunized animal or by the injection of a small amount of antibody into the skin of an animal that has just previously been given a large amount of soluble antigen intravenously. In both cases the antigen and antibody become deposited in the walls of small venules. Plasma complement is rapidly bound and activated. Within a few hours neutrophils (PMNs) accumulate, resulting in disruption of the basement membrane of vessel walls and marked edema and hemorrage in the surrounding tissue.
The reverse passive Arthus reaction test in rats is conducted as follows. Male Sprague-Dawley rats weighing approximately 130-160 g. are used, 4 rats per group. All animals are injected intravenously with 0.5 ml. 0.075% Bovine Serum Albumin (B.S.A.)+0.2% Evans Blue solution. Each rat then receives an oral dose of drug; one drug is administered per group.
Thirty minutes subsequent to drug dosing, each animal is injected intradermally with 0.05 ml. 1.44% Anti-B.S.A. into the dorsal skin. Four hours later the animals are sacrificed, the dorsal skin reflexed, and the lesion excised. Two perpendicular diameters of each lesion are measured. The average diameters of the lesions from the treated groups are compared with the average diameters from the control group to determine any drug effect.
The anti-inflammatory activity of representative compounds of this invention, as determined by the reverse passive Arthus reaction test in rats, is summarized in Table I.

Row | Structure (SMILES) | inhibition in vivo at 100 mg/kg (oral dose 100 mg/kg, rat) | further results
1 | Brc1c(-c2ccccc2)nn(-c2ccccc2)c1NC1=NCCN1 [R1=C6H5, R2=C6H5, R3=Br, R4=H, 2(4-Bromo-1,3-diphenyl-5-pyrazolyl) amino-2-imidazoline hydrobromide] | 17% | –
2 | c1ccc(-c2cc(NC3=NCCN3)n(-c3ccccc3)n2)cc1 [R1=C6H5, R2=C6H5, R3=H, R4=H, 2(1,3-Diphenyl-5-pyrazolyl) amino-2-imidazoline] | 32% | –
3 | Brc1cnn(-c2ccccc2)c1NC1=NCCN1 [R1=C6H5, R2=H, R3=Br, R4=H, 2-(4-Bromo-1-phenyl-5-pyrazolyl)-amino-2-imidazoline hydrochloride] | 59% | inhibition in vivo at 25 mg/kg (rat): 41%
4 | CC(=O)N1CCN=C1Nc1ccnn1-c1ccccc1 [R1=C6H5, R2=H, R3=H, R4=COCH3, 1-Acetyl-2-(1-phenyl-5-pyrazolyl)-amino-2-imidazoline] | 70% | –
5 | c1ccc(-n2nccc2NC2=NCCN2)cc1 [R1=C6H5, R2=H, R3=H, R4=H, 2-(1-Phenyl-5-pyrazolyl)-amino-2-imidazoline] | 75% | inhibition in vivo at 25 mg/kg (rat): 62%
6 | CC(C)c1nn(C(C)C)c(NC2=NCCN2)c1Br [R1=Me2CH, R2=Me2CH, R3=Br, R4=H, 2-(4-Bromo-1,3-di-isopropyl-5-pyrazolyl)amino-2-imidazoline hydrobromide] | – | inhibition in vivo at 100 mg/kg (Rattus norvegicus, po): 27%
7 | CC(C)c1cc(NC2=NCCN2)n(C(C)C)n1 [R1=Me2CH, R2=Me2CH, R3=H, R4=H, 2-(1,3-Di-isopropyl-5-pyrazolyl)-amino-2-imidazoline] | 11% | –
8 | CC(=O)N1CCN=C1Nc1cc(C)nn1C(C)C [R1=Me2CH, R2=Me, R3=H, R4=COCH3, 1-Acetyl-2(1-isopropyl-3-methyl-5-pyrazolyl)amino-2-imidazoline] | 39% | inhibition in vivo at 50 mg/kg (oral dose 50 mg/kg, rat): 30%
9 | Cc1cc(NC2=NCCN2)n(C(C)C)n1 [R1=Me2CH, R2=Me, R3=H, R4=H, 2-(1-Isopropyl-3-methyl-5-pyrazolyl)amino-2-imidazoline] | 29% | inhibition in vivo at 50 mg/kg (oral dose 50 mg/kg, rat): 20%
10 | Cc1nn(CCC(C)C)c(NC2=NCCN2)c1Br [R1=Me2CHCH2CH2, R2=Me, R3=Br, R4=H, 2[4-Bromo-1-(3-methylbutyl)-3-methyl-5-pyrazolyl]amino-2-imidazoline hydrochloride] | – | inhibition in vivo at 100 mg/kg (Rattus norvegicus, po): 16%
11 | Cc1cc(NC2=NCCN2)n(CCC(C)C)n1 [R1=Me2CHCH2CH2, R2=Me, R3=H, R4=H, 2[1-(3-Methylbutyl)-3-methyl-5-pyrazolyl]amino-2-imidazoline] | – | inhibition in vivo at 100 mg/kg (Rattus norvegicus, po): 15%
12 | CC(C)c1nn(C)c(NC2=NCCN2)c1Br [R1=Me, R2=Me2CH, R3=Br, R4=H, 2(4-Bromo-3-isopropyl-1-methyl-5-pyrazolyl)amino-2-imidazoline hydrobromide] | – | inhibition in vivo at 50 mg/kg (Rattus norvegicus, po): 37%; inhibition in vivo at 100 mg/kg (Rattus norvegicus, po): 42%
13 | CC(=O)N1CCN=C1Nc1cc(C(C)C)nn1C [R1=Me, R2=Me2CH, R3=H, R4=COCH3, 1-Acetyl-2(3-isopropyl-1-methyl-5-pyrazolyl)amino-2-imidazoline] | 18% | –
14 | CC(C)c1cc(NC2=NCCN2)n(C)n1 [R1=Me, R2=Me2CH, R3=H, R4=H, 2(3-Isopropyl-1-methyl-5-pyrazolyl)-amino-2-imidazoline] | 42% | inhibition in vivo at 50 mg/kg (oral dose 50 mg/kg, rat): 33%
15 | Cc1nn(C)c(Cl)c1NC1=NCCN1 [R1=Me, R2=Me, R3=(5) (C1), R4=H, 2-(4-chloro-1,3-dimethyl-4-pyrazolyl)-amino-2-imidazoline hydrochloride] | 69% | inhibition in vivo at 10 mg/kg (oral dose 10 mg/kg, rat): 49%; inhibition in vivo at 25 mg/kg (rat): 64%
16 | CC(=O)N1CCN=C1Nc1c(C)nn(C)c1Cl [R1=Me, R2=Me, R3=(5) C1, R4=COCH3, 1-acetyl-2-(5-chloro-1,3-dimethyl-4-pyrazolyl) amino-2-imidazoline hydrochloride] | 63% | inhibition in vivo at 25 mg/kg (rat): 39%
17 | Cc1nn(C)c(NC2=NCCN2)c1Br [R1=Me, R2=Me, R3=Br, R4=H, 2(4-Bromo-1,3-dimethyl-5-pyrazolyl)-amino-2-imidazoline] | – | inhibition in vivo at 50 mg/kg (oral dose 50 mg/kg, rat): 45%
18 | Cc1cc(NC2=NCCN2)n(C)n1 [R1=Me, R2=Me, R3=H, R4=H, 2(1,3-Dimethyl-5-pyrazolyl) amino-b 2-imidazoline] | 55% | –
19 | Cc1nn(C)c(NC2=NCCN2)c1I [R1=Me, R2=Me, R3=I, R4=H, 2(1,3-Dimethyl-4-iodo-5-pyrazolyl)-amino-2-imidazoline] | 43% | –
20 | Brc1cnn(C2CCCCC2)c1NC1=NCCN1 [R1=drawing 4, R2=H, R3=Br, R4=H, 2-(4-Bromo-1-cyclohexyl-5-pyrazolyl)-amino-2-imidazoline hydrochloride] | 15% | –
21 | c1cc(NC2=NCCN2)n(C2CCCCC2)n1 [R1=drawing 5, R2=H, R3=H, R4=H, 2-(1-Cyclohexyl-5-pyrazolyl)-amino-2-imidazoline] | 15% | –
